# In patent US9394544B2, “Ameliorating oxidative stress in neurodegenerative disease via Nox1 targeting” (University of Central Florida Research Foundation, Inc., priority 2013, dated 2016):
# Read-outs that look alike come from different tables or passages of the source.
# Tests used:
# Nox1 [1] = experiment: Nox1 expression (RT-PCR, immunoblot) in N27 cells exposed to toxins; format: cell-based, rat
# From the text: The NADPH oxidase is a multi-subunit enzyme that consists of the catalytic subunits (Nox isoforms) together with the regulatory subunits including p22phox, p47phox, p40phox, p67phox, Nox organizer 1 (Noxo1), Nox activator 1 (Noxa1), and small GTPase Rac1. In order to test whether dopaminergic (DA) cells are equipped with the NOX components, N27, a well-established rat DA cell line was examined (Prasad et al. 1994). The mRNAs encoding each Nox isoform and regulatory subunits were detected using RT-PCR. Since transcriptional induction of Nox1 and Nox4 has already been reported in several tissues under a variety of stimuli, transcripts were determined in both nontreated and 6-hydroxydopamine (6-OHDA), a DA neurodegenerative compound, treated DA cells. ROS generation as induced by 6-OHDA (100 μM) and subsequent cell death was observed. All Nox isoforms (Nox1, Nox2, Nox4, Duox1 and Duox2) except Nox3 and Nox5 were detected (FIG. 1A). […] Mitochondria, which have long been considered as a major source of ROS, play a key role in Nox1-mediated superoxide generation (Desouki et al. 2005). […] Cytoplasmic regulatory subunits including p47phox, Noxa1, and Noxo1 were constitutively expressed in DA cells as well (FIG. 1A). Noxa1 and Noxo1 are homologues of p67phox and p47phox, respectively. They are involved in Nox1-mediated superoxide generation (Banfi et al. 2003, Geiszt et al. 2003). […] The activation of a small GTPase Rac1 is indispensable for Nox1 and Nox2 activation (Bokoch 2002). GTP-bound active Rac1 was measured in DA cells treated with 6-OHDA for various duration from 1 h to 6 h.
# Total RNA was extracted from N27 cells using Trizol reagent (Invitrogen, Carlsbad, Calif.). Reverse transcription was performed for 1 h at 42° C. with 1 μg of total RNA using 20 unit/μl of AMV reverse transcriptase (Roche Applied Science, Indianapolis, Ind.), and oligo-p(dT)15 as a primer. The samples were then heated at 99° C. for 5 min to terminate the reaction. The cDNA obtained from 1 μg total RNA was used as a template for PCR amplification. Oligonucleotide primers were designed based on Genebank entries for rat NOX1 (sense, 5′-[…]-3′ SEQ ID NO. 1; antisense, 5′-[…]-3′ SEQ ID NO. 2), rat NOX2 (sense, 5′-[…]-3′ SEQ ID NO. 3; antisense, 5′-[…]-3′ SEQ ID NO. 4), rat NOX4 (sense, 5′-[…]-3′ SEQ ID NO. 5; antisense, 5′-[…]-3′ SEQ ID NO. 6), rat NOXA1 (sense, 5′-[…]-3′ SEQ ID NO. 7; antisense, 5′-[…]-3′ SEQ ID NO. 8), rat NOXO1 (sense, 5′-[…]-3′ SEQ ID NO. 9; antisense, 5′-[…]-3′ SEQ ID NO. 10), rat p47 (sense, 5′-[…]-3′ SEQ ID NO 11; antisense, 5′-[…]-3′ SEQ ID NO. 12), rat Duox1 (sense, 5′-[…]-3′ SEQ ID NO. 13; antisense, 5′-[…]-3′SEQ ID NO. 14), rat Duox2 (sense, 5′-[…]-3′ SEQ ID NO. 15; antisense, 5′-[…]-3′ SEQ ID NO. 16) and rat GAPDH (sense, 5′-[…]-3′ SEQ ID NO. 17; antisense, 5′-[…]-3′ SEQ ID NO. 18). PCR mixes contained 10 μl of 2×PCR buffer, 1.25 mM of each dNTP, 10 pmol of each forward and reverse primer, and 2.5 units of Taq polymerase in the final volume of 20 μl. Amplification was performed in 35 cycles at 60° C., 30 sec; 72° C., 1 min; 94° C., 30 sec. After the last cycle, all samples were incubated for an additional 10 min at 72° C. for final extension step. PCR fragments were analyzed on 1.2% agarose gel in 0.5×TAE containing ethidium bromide. Amplification of GAPDH, a relatively invariant internal reference RNA, was performed in parallel, and cDNA amounts were normalized against GAPDH mRNA levels. The primer set specifically recognized only the gene of interest as indicated by amplification of a single band of expected size. […]
# N27 cells = experiment: NBT assay of 6-OHDA-mediated ROS generation in N27 dopaminergic cells; format: cell-based, rat; settings: 6 h; for 6-OHDA-mediated ROS generation (NBT assay): inhibitor pre-treatment 30 min (DPI 0.1, 0.5, 1.0 μM; apocynin 0.1, 1.0, 10, 100 μM), then 6-OHDA 100 μM
# Experimental: N27 cells were pre-treated with various concentrations of DPI (0.1, 0.5, and 1.0 μM) for 30 min and then 6-OHDA (100 μM) was added. Superoxide was measured using the nitroblue tetrazolium (NBT) assay at 6 h post 6-OHDA.
# Cells were grown in RPMI 1640 containing 10% FBS, 100 IU/1 penicillin, and 10 g/ml streptomycin at 37° C. with 5% CO2 supply in humidified atmosphere. For experiments, the cells were plated on polystyrene tissue culture dishes at a density of 2×10^4 cells/well in 96-well culture plates, 1×10^6 cells/well in 24-well culture plates, 1×10^6 cells/well in 6-well culture plates, or 2×10^6 cells/100 mm plate. After 24 h, the cells were fed with fresh medium and treated with 6-OHDA and/or other drugs.
# 6-OHDA treated cells were incubated for 1 h at 37° C. with a filtered solution of 0.3 mg/ml of NBT in complete medium. The cells were washed once with PBS and fixed with 0.4% paraformaldehyde for light microscopy. To quantify NBT precipitation, cells were washed twice with 70% methanol and fixed for 5 min in 100% methanol. After the wells were allowed to dry in the air, the formazan is solubilized with 120 μl 2M K OH and 140 μl DMSO. The OD was read in an ELISA plate reader at 590 nm.
# Nox1 [2] = experiment: Nuclear localization of Nox1-EGFP in N27 cells (confocal microscopy); format: cell-based, rat; settings: N27 cells expressing Nox1-EGFP; 6-OHDA 50 μM 6 h, rotenone 5 μM 18 h
# From the text: The observation that Nox1 was induced by a variety of oxidative stimuli in vitro led one to test Nox1 expression in the rat substantia nigra DA (SNDA) neurons administered with 6-OHDA. […] Neither astrocytes nor microglia expressed Nox1, as verified by co-immunostaining of Nox1 with GFAP (astrocytes) or CD11b (microglia) (FIG. 3B). Increased Nox1 transcript was found in the SN as shown by in situ hybridization (FIG. 3C). […] As early as 3 days post 6-OHDA injection, Nox1 expression was increased in the nucleus and in the cytoplasm of DA neurons (FIG. 4A). […] Nuclear expression of the Nox1/Rac1 complex was further analyzed in N27 cells after treatment with 6-OHDA. First, activated Rac1 was detected by immunoprecipitation of nuclear extracts of N27 cells after a 24 h treatment with 6-OHDA. […] Next, it was established that N27 cells stably expressing Nox1 tagged with EGFP at the C-terminus. […] To examine whether nuclear translocation of Nox1 in dopaminergic cells is observed under different conditions that cause dopaminergic neuronal death, mitochondrial respiratory complex inhibitor, rotenone, was tested.
# Nox1 [3] = experiment: Nox1 expression in SNDA neurons of MPTP-treated mice; format: in vivo
compound,measurement,setting,value
antimycin A,mRNA and protein levels of Nox1,Nox1 [1]; N27 cells,elevated
"c1ccc2c(c1)[I+]c1ccccc1-2 [DPI, diphenyleneiodonium]",lowest concentration significantly reducing 6-OHDA-mediated ROS generation,"N27 cells; 30 min pre-treatment, 6-OHDA 100 μM",0.1 µM
same,6-OHDA-mediated ROS generation (NBT assay),N27 cells,significantly reduced
COc1cc(C(C)=O)ccc1O [apocynin],6-OHDA-mediated ROS generation (NBT assay),N27 cells,significantly diminished
N#CC(C#N)=NNc1ccc(OC(F)(F)F)cc1 [FCCP],mRNA and protein levels of Nox1,Nox1 [1],elevated
CC(C)(C)c1ccc(CSc2cnn(C(C)(C)C)c(=O)c2Cl)cc1 [pyridaben],mRNA and protein levels of Nox1,Nox1 [1]; N27 cells,elevated
C=C(C)[C@H]1Cc2c(ccc3c2O[C@@H]2COc4cc(OC)c(OC)cc4[C@@H]2C3=O)O1 [rotenone],nuclear localization of Nox1,Nox1 [2],led to nuclear localization of Nox1
same,mRNA and protein levels of Nox1,Nox1 [1]; N27 cells,elevated
OO [H2O2],mRNA and protein levels of Nox1,Nox1 [1]; N27 cells,increase
"CN1CC=C(c2ccccc2)CC1 [MPTP, 1-methyl-4-phenyl-1,2,3,6-tetrahydropyridine]",Nox1 expression in the SNDA neurons,Nox1 [3],Increased Nox1 expression
